Reference: patent US20130281313A1, “PROGNOSTIC AND/OR PREDICTIVE BIOMARKERS AND BIOLOGICAL APPLICATIONS THEREOF” (INSTITUT GUSTAVE ROUSSY, priority 2010, published 2013)

Assays:
Type in all cases: cell-based, human
CDDP-GG DNA adducts = assay: Immunofluorescence microscopy for the detection of CDDP-GG DNA adducts; conditions: A549 cells, 25 μM CDDP alone or combined with PN
Description: Immunofluorescence staining and measurement of specific DNA platination products was performed essentially as previously described {Dzagnidze, 2007; Liedert, 2006}, with minor modifications. Briefly, cells were spotted onto ImmunoSelect adhesion slides (Squarix GmbH, Marl, Germany), fixed overnight in ice-cold methanol, and subjected to proteolytic digestion with 60 μg/mL pepsin (100 μL per spot, 10 min, 37° C., in a moist chamber) and 40 μg/mL proteinase K (100 μL per spot, 10 min, 37° C., in a moist chamber). Upon blockage of unspecific binding sites with 5% (w/v) non-fat powdered milk in PBS, slides were incubated with a rat primary antibody that specifically recognizes CDDP-GG DNA adducts (RC-18) (at 37° C. for 2 h or at 4° C. overnight). […] Images were acquired on an Axioplan fluorescence microscope (Carl Zeiss GmbH, Göttingen, Germany) coupled to a C4880 CCD camera (Hamamatsu Photonics, Herrsching, Germany). For the detection of CDDP-GG DNA adducts by immunofluorescence microscopy, fluorescence signals were measured by quantitative digital image analysis with the ACAS 6.0 Cytometry Analysis System (ACAS II, Asbach, Germany). The levels of adducts in each sample were calculated as arbitrary fluorescence units (AFUs), upon normalization of integrated antibody-derived fluorescence from 200 nuclei/sample to the corresponding DNA content. […]

A549 cells [1] = assay: Quantification of intracellular PN (LC-MS/MS); conditions: 24 or 48 h
Description: A549 cells were cultured in absence or the presence of 5 mM PN for 24 or 48 h, harvested, washed once in cold PBS and pelleted at 800 G for 10 min. Supernatants were discarded and pellets were dissolved in 500 μL of deionized H2O by vortexing for 1 min followed by sonication for 10 min. Thereafter, lysates were centrifuged at 5,796 G for 10 min and 60 μL of the resulting supernatant were mixed with an equal volume of trichloroacetic acid (TCA). Upon additional centrifugation (5,796 G, 10 min), 50 μL of sample were injected onto the chromatographic column and PN was measured by liquid chromatography with tandem mass spectrometry (LC-MS/MS), as previously described {Johansson, 2010; Midttun, 2009}.

A549 cells [2] = assay: Cytofluorometric assessment of cell death (DiOC6(3)/PI co-staining)

With `Cc1ncc(CO)c(CO)c1O` [PN, pyridoxine] the CDDP-DNA adducts (CDDP-GG DNA adducts) was “significantly increased CDDP-DNA adducts”, the “intracellular PN concentration upon acute addition” value (A549 cells [1]) was “increased the intracellular PN concentration” and the “CDDP-induced cell death upon acute addition of the vitamer (DiOC6(3)/PI co-staining)” value (A549 cells [2]; A549 cells, 25 μM CDDP, co-treated for 48 h) was “exacerbated CDDP-induced cell death”. The “effects of PN on CDDP-induced cell death upon PDXK depletion” value (A549 cells [2]; siPDXK-transfected A549 cells, CDDP) was “lost upon PDXK depletion”.
